Experimental data reported in ChEMBL document CHEMBL5126603, “Discovery of Clinical Candidate CHF-6366: A Novel Super-soft Dual Pharmacology Muscarinic Antagonist and β2 Agonist (MABA) for the Inhaled Treatment of Respiratory Diseases” (J Med Chem, 2022).

Tests used:
[1] = Metabolic stability in Dunkin-Hartley guinea pig plasma assessed as half life at 5 uM measured upto 120 mins by LC-MS/MS analysis; format: ADME, cell-free, Cavia porcellus
[2] = Mutagenicity in Salmonella typhimurium assessed as induction of reverse mutation by Ames test; format: toxicity; conditions: salmonella enterica subsp. enterica serovar typhimurium
Trachea [3] = assay: (§1) Bifunctional antagonist activity at muscarinic M3 receptor /agonist activity at beta-2 adrenoceptor in Dunkin-Hartley guinea pig trachea assessed as inhibition of acetylcholine-induced bronchoconstriction at 0.3 nmol/Kg, IT(Intratracheal) measured after 5 mins by Konzett-Roessler methodology relative to control; format: functional; conditions: Cavia porcellus
[4] = target: 5-hydroxytryptamine receptor 1B (Homo sapiens) (UniProt P28222); assay: Inhibition of 5-HT1B receptor (unknown origin) at 10 uM relative to control
[5] = Cmax in Dunkin-Hartley guinea pig plasma at 500 nmol/Kg, IT(Intratracheal) measured after 72 hrs by LC/MS-MS analysis; format: ADME, cell-free, Cavia porcellus; design: dose 500 nmol/kg, time 72 hrs, route it(Intratracheal); conditions: inhaled or intranasal
Trachea [6] = assay: In vivo bifunctional antagonist activity at muscarinic M3 receptor /agonist activity at beta-2 adrenoceptor in Dunkin-Hartley guinea pig trachea assessed as inhibition of carbachol induced contraction; format: functional, tissue-based; conditions: Cavia porcellus
[7] = Half life in Dunkin-Hartley guinea pig plasma at 500 nmol/Kg, IT(Intratracheal) measured after 72 hrs by LC/MS-MS analysis; format: ADME, cell-free, Cavia porcellus; conditions: inhaled or intranasal
[8] = Metabolic stability in Dunkin-Hartley guinea pig lung S9 fraction assessed as half life at 1 uM measured after 0 to 60 mins in presence of NADPH by LC-MS/MS analysis; format: ADME, subcellular, Cavia porcellus; conditions: time 0-60 min
Trachea [9] = assay: as §1, with “acetylcholine induced” for “acetylcholine-induced”, “1 hr” for “5 mins”; format: functional; conditions: Cavia porcellus
Trachea [10] = assay: as §1, with “15” for “5”; format: functional; conditions: Cavia porcellus, 0.25 h
Trachea [11] = assay: as §1, with “acetylcholine induced” for “acetylcholine-induced”, “1” for “0.3”, “1 hr” for “5 mins”; format: functional; conditions: Cavia porcellus
Trachea [12] = assay: as §1, with “1” for “0.3”, “30” for “5”; format: functional; conditions: Cavia porcellus, 0.5 h
[13] = In vivo agonist activity at beta-2 adrenoceptor in Dunkin-Hartley guinea pig trachea assessed as inhibition of histamine induced bronchoconstriction at 0.3 nmol/Kg, IT(Intratracheal) measured after 1 hr by Konzett-Roessler methodology relative to control; format: functional; conditions: Cavia porcellus
[14] = Metabolic stability in human plasma assessed as half life at 5 uM measured upto 120 mins by LC-MS/MS analysis; format: ADME, cell-free
Trachea [15] = assay: as §1, with “0.1” for “0.3”, “15” for “5”; format: functional; conditions: Cavia porcellus, 0.25 h
[16] = target: L-type calcium channel phenylalkylamine site (Homo sapiens, UniProt O60840+Q01668+Q13698+Q13936); assay: Inhibition of L-type calcium channel phenylalkylamine site (unknown origin) at 10 uM relative to control; format: protein assay
[17] = Metabolic stability in rat plasma assessed as half life at 5 uM measured upto 120 mins by LC-MS/MS analysis; format: ADME, cell-free
[18] = AUCinfinity in Dunkin-Hartley guinea pig lung at 500 nmol/Kg, IT(Intratracheal) measured after 72 hrs by LC/MS-MS analysis; format: ADME, tissue-based, Cavia porcellus; design: dose 500 nmol/kg, time 72 hrs, route it(Intratracheal); conditions: in vivo, inhaled_or_intranasal
[19] = Apparent permeability across apical to basolateral side in human Caco-2 cells at 10 uM and measured after 2 hrs by LC-MS/MS analysis; format: ADME, cell-based
[20] = AUClast in Dunkin-Hartley guinea pig plasma at 500 nmol/Kg, IT(Intratracheal) measured after 72 hrs by LC/MS-MS analysis; format: ADME, cell-free, Cavia porcellus; design: time 72 hrs, dose 500 nmol/kg, route it(Intratracheal); conditions: inhaled or intranasal
[21] = target: 5-hydroxytryptamine receptor 2A (Homo sapiens) (UniProt P28223); assay: Inhibition of 5-HT2a (unknown origin) at 10 uM relative to control
[22] = target: T1, 5-hydroxytryptamine receptor 2C (Homo sapiens) (UniProt P28335); assay: Inhibition of 5-HT2c (unknown origin) at 10 uM relative to control
T1 sequence (whole entry): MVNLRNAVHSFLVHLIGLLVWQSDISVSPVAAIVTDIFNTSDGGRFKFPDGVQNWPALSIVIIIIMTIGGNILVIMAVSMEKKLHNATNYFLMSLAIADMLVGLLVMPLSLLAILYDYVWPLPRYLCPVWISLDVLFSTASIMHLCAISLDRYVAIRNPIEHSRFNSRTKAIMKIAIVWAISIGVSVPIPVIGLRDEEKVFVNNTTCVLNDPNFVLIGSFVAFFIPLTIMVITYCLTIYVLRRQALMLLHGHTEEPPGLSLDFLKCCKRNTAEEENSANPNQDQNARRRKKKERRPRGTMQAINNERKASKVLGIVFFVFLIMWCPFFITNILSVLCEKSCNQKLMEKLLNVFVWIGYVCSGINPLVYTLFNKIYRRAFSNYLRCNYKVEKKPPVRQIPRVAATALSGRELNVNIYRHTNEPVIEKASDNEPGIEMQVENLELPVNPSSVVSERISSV

[23] = Toxicity in INH dosed dog assessed as maximum tolerated dose measured after 7 days; format: organism-based, Canis lupus familiaris; conditions: in vivo, inhaled or intranasal, time 7 day
[24] = In vivo agonist activity at beta-2 adrenoceptor in Dunkin-Hartley guinea pig trachea assessed as inhibition of histamine induced bronchoconstriction at 1 nmol/Kg, IT(Intratracheal) measured after 24 hr by Konzett-Roessler methodology relative to control; format: functional; conditions: Cavia porcellus
Trachea [25] = assay: as §1, with “acetylcholine induced” for “acetylcholine-induced”, “1” for “0.3”, “24 hr” for “5 mins”; format: functional; conditions: Cavia porcellus
[26] = In vivo antagonist activity at muscarinic M3 receptor in Dunkin-Hartley guinea pig trachea assessed as inhibition of acetylcholine induced bronchoconstriction at 1 nmol/Kg, IT(Intratracheal) measured after 24 hr in presence of ICI-118551 by Konzett-Roessler methodology relative to control; format: functional; conditions: Cavia porcellus
[27] = target: Sodium-dependent serotonin transporter (Homo sapiens) (UniProt P31645); assay: Inhibition of serotonin transporter (unknown origin) at 10 uM relative to control
[28] = In vivo agonist activity at beta-2 adrenoceptor in Dunkin-Hartley guinea pig trachea assessed as inhibition of histamine induced bronchoconstriction at 1 nmol/Kg, IT(Intratracheal) measured after 1 hr by Konzett-Roessler methodology relative to control; format: functional; conditions: Cavia porcellus
[29] = Metabolic stability in rat lung S9 fraction assessed as half life at 1 uM measured after 0 to 60 mins in presence of NADPH by LC-MS/MS analysis; format: ADME, subcellular; conditions: time 0-60 min
[30] = Cmax in Dunkin-Hartley guinea pig lung at 500 nmol/Kg, IT(Intratracheal) measured after 72 hrs by LC/MS-MS analysis; format: ADME, tissue-based, Cavia porcellus; design: time 72 hrs, dose 500 nmol/kg, route it(Intratracheal); conditions: inhaled or intranasal
[31] = target: D(2) dopamine receptor (Homo sapiens) (UniProt P14416); assay: Inhibition of dopamine D2 receptor (unknown origin) at 10 uM relative to control
[32] = AUCinfinity in Dunkin-Hartley guinea pig plasma at 500 nmol/Kg, IT(Intratracheal) measured after 72 hrs by LC/MS-MS analysis; format: ADME, cell-free, Cavia porcellus; design: dose 500 nmol/kg, time 72 hrs, route it(Intratracheal); conditions: inhaled or intranasal
[33] = Half life in Dunkin-Hartley guinea pig lung at 500 nmol/Kg, IT(Intratracheal) measured after 72 hrs by LC/MS-MS analysis; format: ADME, tissue-based, Cavia porcellus; conditions: inhaled or intranasal

D(2) dopamine receptor (Homo sapiens), sequence (P14416 whole entry): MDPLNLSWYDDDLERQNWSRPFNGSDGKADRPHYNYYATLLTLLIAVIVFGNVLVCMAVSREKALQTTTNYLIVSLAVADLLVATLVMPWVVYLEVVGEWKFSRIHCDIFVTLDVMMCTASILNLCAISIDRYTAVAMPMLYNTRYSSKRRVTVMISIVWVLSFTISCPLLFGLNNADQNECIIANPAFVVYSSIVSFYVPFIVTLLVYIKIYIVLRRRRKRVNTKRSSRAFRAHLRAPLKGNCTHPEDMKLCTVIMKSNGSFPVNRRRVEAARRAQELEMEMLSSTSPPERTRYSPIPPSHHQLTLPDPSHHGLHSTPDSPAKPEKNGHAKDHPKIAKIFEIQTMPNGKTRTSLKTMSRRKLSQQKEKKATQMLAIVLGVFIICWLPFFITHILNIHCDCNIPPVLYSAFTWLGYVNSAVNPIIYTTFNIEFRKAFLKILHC
Sodium-dependent serotonin transporter (Homo sapiens), sequence (P31645 whole entry, looked up): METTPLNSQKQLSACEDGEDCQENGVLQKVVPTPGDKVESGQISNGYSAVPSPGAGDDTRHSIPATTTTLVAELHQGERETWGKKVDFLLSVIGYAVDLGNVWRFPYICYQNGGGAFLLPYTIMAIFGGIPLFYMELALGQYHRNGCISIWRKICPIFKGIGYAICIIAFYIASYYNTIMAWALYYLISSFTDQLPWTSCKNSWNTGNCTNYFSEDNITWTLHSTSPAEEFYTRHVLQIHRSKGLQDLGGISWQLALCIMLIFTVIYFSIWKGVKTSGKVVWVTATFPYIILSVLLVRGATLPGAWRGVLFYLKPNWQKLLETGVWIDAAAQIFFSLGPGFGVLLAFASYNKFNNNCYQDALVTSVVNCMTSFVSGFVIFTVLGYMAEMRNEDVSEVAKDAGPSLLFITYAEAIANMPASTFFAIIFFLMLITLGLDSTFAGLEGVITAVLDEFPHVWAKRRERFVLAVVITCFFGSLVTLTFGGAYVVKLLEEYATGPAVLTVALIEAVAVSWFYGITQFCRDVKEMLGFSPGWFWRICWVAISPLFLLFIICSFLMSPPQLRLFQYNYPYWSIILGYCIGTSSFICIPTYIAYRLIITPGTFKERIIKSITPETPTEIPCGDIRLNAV
5-hydroxytryptamine receptor 1B (Homo sapiens), sequence (P28222 whole entry): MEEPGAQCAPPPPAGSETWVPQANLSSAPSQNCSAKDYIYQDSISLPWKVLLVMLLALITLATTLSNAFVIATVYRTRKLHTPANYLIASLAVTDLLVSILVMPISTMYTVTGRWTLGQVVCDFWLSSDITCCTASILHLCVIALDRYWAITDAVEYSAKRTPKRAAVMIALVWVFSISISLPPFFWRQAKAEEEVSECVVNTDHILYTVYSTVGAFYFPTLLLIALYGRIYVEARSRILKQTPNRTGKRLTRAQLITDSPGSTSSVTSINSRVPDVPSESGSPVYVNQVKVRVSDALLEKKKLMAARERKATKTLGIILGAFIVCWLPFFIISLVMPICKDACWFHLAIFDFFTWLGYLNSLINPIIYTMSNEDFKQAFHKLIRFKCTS
5-hydroxytryptamine receptor 2A (Homo sapiens), sequence (P28223 whole entry): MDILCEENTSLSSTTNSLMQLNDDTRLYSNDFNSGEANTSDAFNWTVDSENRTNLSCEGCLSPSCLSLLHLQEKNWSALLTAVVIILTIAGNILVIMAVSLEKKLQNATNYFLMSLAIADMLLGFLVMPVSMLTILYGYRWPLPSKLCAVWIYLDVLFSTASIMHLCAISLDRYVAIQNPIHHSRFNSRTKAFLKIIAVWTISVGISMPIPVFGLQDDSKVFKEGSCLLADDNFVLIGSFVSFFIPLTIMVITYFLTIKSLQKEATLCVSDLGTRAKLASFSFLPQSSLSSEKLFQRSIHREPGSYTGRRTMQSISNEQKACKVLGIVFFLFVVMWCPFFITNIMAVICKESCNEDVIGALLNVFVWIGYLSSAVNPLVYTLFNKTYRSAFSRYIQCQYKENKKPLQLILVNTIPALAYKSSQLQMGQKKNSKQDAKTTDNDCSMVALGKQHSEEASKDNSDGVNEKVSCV

Cn1nc(C(=O)OCCCCNC[C@H](O)c2ccc(O)c3[nH]c(=O)ccc23)cc1COc1cccc([C@@H](NC(=O)O[C@H]2CN3CCC2CC3)c2ccccc2)c1
half-life at 5 µM [1]: 34 min | Activity [2]: Non-Toxic | inhibition in vivo at 0.0003 µmol/kg (Trachea [3]): 56.6% | inhibition [4]: > 65% | Cmax [5]: 126 ng/g | IC50 (Trachea [6]): 0.316 nM | half-life [7]: 924 min | half-life at 1 µM [8]: > 120 min | inhibition in vivo at 0.0003 µmol/kg (Trachea [9]): 58.4% | inhibition in vivo at 0.0003 µmol/kg (Trachea [10]): 66.2% | inhibition in vivo at 0.001 µmol/kg (Trachea [11]): 92.4% | inhibition in vivo at 0.001 µmol/kg (Trachea [12]): 90.8% | inhibition in vivo at 0.0003 µmol/kg [13]: 31.9% | half-life at 5 µM [14]: 20 min | inhibition in vivo at 0.0001 µmol/kg (Trachea [15]): 25.1% | inhibition at 10 µM [16]: > 65% | half-life at 5 µM [17]: < 5 min | AUC [18]: 725199 ng·h/g | Papp A→B at 2 h, 10 µM [19]: 2.4 ×10⁻⁶ cm/s | AUC(0-t) at 72 h [20]: 460 ng·h/mL | inhibition [21]: > 65% | inhibition [22]: > 65% | MTD at 168 h [23]: 0.124 mg/kg/day | inhibition in vivo at 0.001 µmol/kg [24]: 50.1% | inhibition in vivo at 0.001 µmol/kg (Trachea [25]): 74.8% | inhibition in vivo at 0.001 µmol/kg [26]: 47.2% | inhibition [27]: > 65% | inhibition in vivo at 0.001 µmol/kg [28]: 69.8% | half-life at 1 µM [29]: 30 min | Cmax [30]: 28400 ng/g | inhibition [31]: > 65% | AUC(0-inf) [32]: 661 ng·h/mL | half-life [33]: 49.2 h
